# Results from patent publication US6660837B1, “Modified protein derived from protein kinase N” (Kirin Beer Kabushiki Kaisha, priority 1995, dated 2003).
# Test system: head-rod domain of NF subunit (NFL, NFM, NFH)
# Assay: Yeast two-hybrid, PKN N-terminal region with NF head-rod domains
# Assay type: binding
# Conditions: lacZ expression
# Experimental: Specificity of the interaction between PKN and various NFs was investigated by measuring the ability of the two-hybrid constructs, pBTM116(Vojtek, A. B. et al., Cell, 74, 205-214 (1993)) (instead of pGBT9)-PKN and pVP16 (Vojtek, A. B. et al., Cell, 74, 205-214 (1993)) (instead of pGAD10)-NF or in reverse, to support lacZ expression in L40 cells.
# Yeast expression vectors were prepared as follows. Yeast expression vector pVP/NFL#21 for the VP16 transcription activation domain-head-rod domain of human NFL was made by subcloning a EcoRI insert (amino acid sequence 1-349) of a library plasmid #21 originally isolated from two-hybrid screening into pVP16 vector (Vojtek, A. B. et al., Cell, 74, 205-214 (1993)). Yeast expression vectors for the VP16 transcription activation domain—tail domain of NFL and NFH or the VP16 transcription activation domain—head-rod domain or tail domain of NFM were constructed by subcloning BamHI/NotI insert of pGST/NFLt, pGST/NFHt, pGST/NFMhr, and pGST/NFMt (described in Example 8) into pVP16 in frame, respectively (designated respectively as pVP/NFLt, pVP/NFHt, pVP/NFMhr, and pVP/NFMt). […]
substance,measurement,value
"N-terminal region of PKN: N-terminal regulatory region of human PKN: 1-540 (PKNN1) in two-hybrid and GST fusions, 1-474 when in vitro translated",binding to head-rod domain of each NF subunit in two-hybrid system,bound
